In BigSolDB 2.1:

COCCOC(=O)C1=C(C)NC(C)=C(C(=O)OC(C)C)C1c1cccc([N+](=O)[O-])c1 (centres undefined)
solubility (mole fraction)
Settings	278.15 K	283.15 K	288.15 K	293.15 K	298.15 K	303.15 K	308.15 K	313.15 K	318.15 K
in THF	0.0141	0.016	0.0181	0.0203	0.0229	0.0259	0.0291	0.0324	0.0366
in acetone	0.012	0.0136	0.0154	0.0171	0.0193	0.0217	0.0241	0.027	0.0295
in acetonitrile	0.00161	0.00191	0.00225	0.00267	0.00311	0.00365	0.00437	0.00503	0.00587
in cyclohexanone	0.0145	0.0164	0.0184	0.021	0.0239	0.0266	0.0297	0.0334	0.0375
in ethanol	0.014	0.0158	0.0176	0.0198	0.0221	0.0247	0.0272	0.0303	0.034
in ethyl acetate	0.00127	0.00145	0.0017	0.00192	0.00221	0.00248	0.0028	0.0032	0.00364
in ethyl formate	0.00152	0.0017	0.00192	0.00218	0.00247	0.00275	0.00305	0.00341	0.00381
in isobutanol	0.00706	0.00811	0.00923	0.0107	0.0122	0.0137	0.0156	0.0179	0.0201
in isopentanol	0.00609	0.00711	0.00815	0.00953	0.011	0.0126	0.0142	0.0166	0.0188
in isopropanol	0.0117	0.0132	0.0147	0.0163	0.0183	0.0204	0.0225	0.0249	0.0278
in methanol	0.0157	0.0178	0.0201	0.0229	0.0259	0.0289	0.0327	0.0364	0.0411
in methyl acetate	0.00456	0.00506	0.00573	0.00647	0.00718	0.00813	0.00898	0.00997	0.0112
in n-butanol	0.0106	0.0117	0.013	0.0145	0.0161	0.0177	0.0195	0.0217	0.0237
in n-pentanol	0.00802	0.00919	0.0103	0.0116	0.0131	0.0145	0.0162	0.018	0.0203
in n-propanol	0.011	0.0123	0.0139	0.0155	0.0173	0.0195	0.0216	0.0241	0.0269
in sec-butanol	0.00977	0.0111	0.0122	0.0134	0.0149	0.0167	0.0181	0.0198	0.022
